Assay results taken from publication PMC7433010, “Exploration of multi‐target effects of 3‐benzoyl‐5‐hydroxychromen‐2‐one in Alzheimer’s disease cell and mouse models” (Aging Cell, 2020).

Legend:
CREB [1] = experiment: Western blot of CREB in hippocampus of STZ‐treated 3 × Tg‐AD mice; type: in vivo, mouse; details: among the three groups
Protocol: In addition, isolated hippocampal and cortex tissues from transgenic mice (as described in Animal studies) were homogenized and extracted proteins (10 µg) were separated and blotted. After being blocked, the membranes were probed with antibody against mouse NRF2 (1:500; Sigma-Aldrich), CREB (1:500; Millipore), pCREB (S133) (1:1000; Millipore), or GAPDH (1:1000; MDBio), and the immune complexes detected as described above.
Mice harboring APPSwe, PS1M146V, and […] transgenes (3×Tg-AD) (Oddo et al., 2003) were purchased from the Jackson Laboratory (004807; Bar Harbor, ME, USA). Six-month-old male homozygous 3×Tg-AD mice were group housed at 20–25°C and 60% relative humidity under a daily 12-h light/12-h dark cycle, with assess to food and water ad libitum. Mice were randomly divided into 3 groups: – streptozocin (STZ), STZ, and STZ/LM-031 (n = 10 per group). STZ-induced hyperglycemia was used to accelerate the development of AD phenotype (Chen et al., 2014). Briefly, the mice were fasted for 12 h each day prior to intraperitoneal (i.p.) injection of STZ ([…]; Sigma-Aldrich) or vehicle (0.1 M sodium citrate pH4.5) for 4 times (days 2, 3, 9, and 10) (Chen et al., 2019). Mouse body weight was measured and blood glucose level was measured on days 1, 8, 15, 22, and 29 using a blood glucose meter (Bioland Technology, Taipei, Taiwan). […]

CREB [2] = experiment: Western blot of CREB in ∆K280 TauRD‐DsRed SH‐SY5Y cells; type: cell-based, human; details: 1 µM; induced untreated 82%, uninduced 100%
Protocol: To knock down CREB expression in ∆K280 TauRD-DsRed SH-SY5Y cells, lentiviral short hairpin RNA (shRNA) targeting CREB (TRCN0000226466), NRF2 (TRCN0000007558), and a negative control scrambled (TRC2.Void) were obtained from National RNAi Core Facility, IMB/GRC, Academia Sinica, Taipei, Taiwan. On day 1, cells were plated on 6-well plates (for protein analysis) or 24-well plates (for neurite outgrowth analysis) in the presence of retinoic acid as described. On the second day, the cells were infected with lentivirus (multiplicity of infection: 3) in medium with polybrene (8 µg/mL; Sigma-Aldrich). […] On day 9, the cells were collected for NRF2, CREB, pCREB, and cleaved CASP3 protein analysis or analyzed for neurite outgrowth as described.
Total proteins from ∆K280 TauRD-DsRed SH-SY5Y cells were obtained using a RIPA buffer containing 50 mM Tris-HCl (pH8.0), 150 mM NaCl, 2 mM EDTA (pH8.0), 50 mM NaF, 0.1% SDS, 0.5% sodium deoxycholate, 1% NP40, and a protease inhibitor cocktail (Sigma-Aldrich). […] Protein concentrations were determined using a protein assay kit (Bio-Rad, Hercules, CA, USA), with albumin as a standard. […] Subsequently, immune complexes were detected using a horseradish peroxidase-conjugated goat anti-mouse or goat anti-rabbit IgG antibody (1:5000; GeneTex, Irvive, CA, USA) and a chemiluminescent substrate (Millipore).

[3] = tested on: ∆K280 TauRD‐DsRed‐expressing SH‐SY5Y cells; experiment: Neurite outgrowth analysis in ∆K280 TauRD‐DsRed SH‐SY5Y cells; type: cell-based, human; details: 1 µM
Protocol: On day 1, ∆K280 TauRD-DsRed-expressing SH-SY5Y cells were seeded on a 24-well plate in a density of 3 × 10^4 cells/well, with 10 µM retinoic acid (Sigma-Aldrich) added to induce neuronal differentiation. On the second day, the cells were treated with licochalcone A (1 µM), LM-031 (1 µM), or congo red (10 µM) for 8 h and ∆K280 TauRD-DsRed expression was induced as described. After seven days, the cells were washed with phosphate-buffered saline (PBS) and fixed in 4% paraformaldehyde in PBS for 15 min. After permeabilized with 0.1% Triton X-100 in PBS for 10 min and blocked by 3% BSA in PBS for 20 min, cells were stained with primary neuronal class III β-tubulin (TUBB3) antibody (1:1000; Covance, Princeton, NJ, USA) at 4°C overnight and secondary anti-rabbit Alexa Fluor ®555 antibody (1:1000; Invitrogen) at room temperature for 3 h. After nuclei were stained with DAPI for 30 min, neuronal images were captured using the high-content imaging system as described and analyzed using the Neurite Outgrowth Application Module (Molecular Devices).
To knock down CREB expression in ∆K280 TauRD-DsRed SH-SY5Y cells, lentiviral short hairpin RNA (shRNA) targeting CREB (TRCN0000226466), NRF2 (TRCN0000007558), and a negative control scrambled (TRC2.Void) were obtained from National RNAi Core Facility, IMB/GRC, Academia Sinica, Taipei, Taiwan. On day 1, cells were plated on 6-well plates (for protein analysis) or 24-well plates (for neurite outgrowth analysis) in the presence of retinoic acid as described. On the second day, the cells were infected with lentivirus (multiplicity of infection: 3) in medium with polybrene (8 µg/mL; Sigma-Aldrich). On day 3, the culture medium was changed and the cells were pretreated with LM-031 (1 µM) for 8 h, followed by induction of ∆K280 TauRD-DsRed expression. On day 9, the cells were collected for NRF2, CREB, pCREB, and cleaved CASP3 protein analysis or analyzed for neurite outgrowth as described.

O=C(c1ccccc1)c1cc2c(O)cccc2oc1=O [LM‐031, 3‐benzoyl‐5‐hydroxychromen‐2‐one]
relative total CREB level in hippocampus (CREB [1]): not significantly different
CREB protein level (CREB [2]): 122%
neurite length ([3]; CREB‐specific shRNA‐infected cells, untreated 46 µm): 51 µm
neurite length ([3]; NRF2‐specific shRNA‐infected cells, untreated 42 µm): 46 µm
neurite length ([3]; scrambled shRNA‐infected cells, untreated 48 µm): 53 µm
